PubChem BioAssay (NCI)
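Compound exposure: 48 hours, 5 concentrations, 96-well plates. TGI marks complete inhibition of growth.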

Assays:
Assay in all cases: DTP human tumour cell line panel, 48 h
[1] = system: IGROV1 ovarian
[2] = system: KM12 colon
[3] = system: OVCAR-3 ovarian
[4] = system: HCT-15 colon
[5] = system: MCF7 breast
[6] = system: BT-549 breast
[7] = system: K-562 leukemia
[8] = system: OVCAR-5 ovarian
[9] = system: EKVX NSCLC
[10] = system: A549 NSCLC
[11] = system: COLO 205 colon
[12] = system: SF-539 CNS
[13] = system: M14 melanoma
[14] = system: SF-295 CNS
[15] = system: MALME-3M melanoma
[16] = system: OVCAR-8 ovarian
[17] = system: HCC-2998 colon
[18] = system: ACHN renal
[19] = system: UO-31 renal
[20] = system: CAKI-1 renal
[21] = system: MDA-N
[22] = system: SK-MEL-5 melanoma
[23] = system: HS 578T breast
[24] = system: SR leukemia
[25] = system: MOLT-4 leukemia
[26] = system: UACC-62 melanoma
[27] = system: HOP-62 NSCLC
[28] = system: PC-3 prostate
[29] = system: U251 CNS
[30] = system: SNB-75 CNS
[31] = system: MDA-MB-435
[32] = system: NCI-H522 lung
[33] = system: SN12C renal
[34] = system: 786-0 renal
[35] = system: NCI/ADR-RES ovarian
[36] = system: NCI-H460 lung
[37] = system: RPMI-8226 leukemia
[38] = system: DU-145 prostate
[39] = system: RXF 393 renal
[40] = system: SF-268 CNS
[41] = system: NCI-H23 lung
[42] = system: SW-620 colon
[43] = system: SK-MEL-2 melanoma
[44] = system: LOX IMVI melanoma
[45] = system: SK-MEL-28 melanoma
[46] = system: NCI-H226 lung
[47] = system: CCRF-CEM leukemia
[48] = system: HCT-116 colon
[49] = system: HL-60(TB) leukemia
[50] = system: HOP-92 NSCLC
[51] = system: OVCAR-4 ovarian
[52] = system: A498 renal
[53] = system: T-47D breast
[54] = system: HT29 colon
[55] = system: UACC-257 melanoma
[56] = system: MDA-MB-231 breast
[57] = system: SNB-19 CNS
[58] = system: LXFL 529 NSCLC
[59] = system: KM20L2 colon
[60] = system: DMS 273 small cell lung
[61] = system: TK-10 renal
[62] = system: SNB-78 CNS
[63] = system: SK-OV-3 ovarian
[64] = system: DLD-1 colon
[65] = system: M19-MEL melanoma
[66] = system: DMS 114 small cell lung
[67] = system: XF 498 CNS

Measured: TGI

Cc1c(O)c2ccccc2oc1=O
not listed: [58] | [59] | [60] | [61] | [62] | [63] | [64] | [65] | [66] | [67]
> 100 µM: all other assays above

Nc1c(-c2cn(Cc3ccccc3)c3ccccc23)[n+]([O-])c2ccccc2[n+]1[O-]
42.6 µM: [49]
78.1 µM: [67]
95.3 µM: [63]
43.1 µM: [50]
51.3 µM: [22]
68.4 µM: [3]
91.8 µM: [45]
88.7 µM: [14]
61.6 µM: [30]
74.3 µM: [13]
36.5 µM: [46]
68 µM: [20]
57 µM: [43]
38.8 µM: [19]
92.3 µM: [25]
41.9 µM: [52]
48.6 µM: [32]
81.8 µM: [60]
35.5 µM: [55]
93.6 µM: [41]
not listed: [5] | [6] | [12] | [21] | [23] | [24] | [27] | [28] | [31] | [35] | [38] | [39] | [48] | [53] | [56]
> 100 µM: all other assays above
